{
  "source": "patent US20150290232A1",
  "about": "“DRUG COMPOSITION FOR TREATING TUMORS AND APPLICATION THEREOF” (priority 2012, published 2015)",
  "format_in_all_cases": "cell-based",
  "key": {"[1]": {"system": "Jurkat cells (acute lymphoblastic leukemia)", "assay": "MTT cell viability, leukemia cells, TTD and Acla A alone and combined", "conditions": "Homo sapiens, 72 h, MTT", "experimental": "(§1) Well-growing leukemia cells were obtained and inoculated into wells of a 96-well cell culture plate at 5000 cells/well. Individual compounds of various concentrations were added, mixed uniformly, and incubated (5% CO2) at 37° C. for 72 hours. Then the cell viability was determined by the MTT method.\n(§2) b) Determine the inhibitory effects of TTD in combination with Ada A on leukemia cells in vitro. The pretreatment of the cells was the same as in a). The control group was not treated with the compound while administered. […] After 72 hours of incubation, the MTT method was used for the determination of cell viability. The cell viability of the control group was set to 100% in this experiment, and the TTD, Ada A single drug and combined effects on cell viability (%) were calculated."}, "[2]": {"system": "k562/ADR leukemia cells (drug-resistant chronic myeloid leukemia)", "assay": "MTT cell viability, leukemia cells, TTD and Acla A alone and combined", "conditions": "Homo sapiens, k562/ADR, 72 h, MTT", "experimental": "as §1, §2"}, "[3]": {"system": "kasumi-1 cells (acute myeloid leukemia M2 type)", "assay": "MTT cell viability, leukemia cells, TTD and Acla A alone and combined", "conditions": "Homo sapiens, 72 h, MTT", "experimental": "as §1, §2"}, "[4]": {"system": "RPMI 8226 (multiple myeloma)", "assay": "MTT cell viability, lymphoma and myeloma cells", "conditions": "Homo sapiens; RPMI 8226, single compound, 72 h, MTT; read-out: concentration (IC50 value of 72 hours)", "experimental": "(§3) Well-growing cells of above were obtained and inoculated into wells of a 96-well cell culture plate at 5000 cells/well. Separate compounds of various concentrations were added, mixed uniformly, and incubated (5% CO2) at 37° C. for 72 hours. Then the cell viability was determined by the MTT method.\n(§4) b) Determine the inhibitory effects of TTD in combination with Ada A on the above cells. The pretreatment of the cells was the same as in a). The control group was not treated with the compound while administered. […] As to the combination group, two compounds were added together into the same group of wells, with the fmal concentrations being the concentrations to which the IC50 values of the two single drugs correspond. After 72 hours of incubation, the MTT method was used for the determination of cell viability. The cell viability of the control group was set to 100% in this experiment, and the TTD, Ada A single drug and combined effects on cell viability (%) were calculated."}, "[5]": {"system": "Raji (human Burkitt lymphoma cells)", "assay": "MTT cell viability, lymphoma and myeloma cells", "conditions": "72 h, MTT", "experimental": "as §3, §4"}, "[6]": {"system": "CaES-17 (esophageal cancer cell)", "assay": "MTT cell viability, human solid tumor cells", "experimental": "(§5) Well-growing cells of above were obtained and inoculated into wells of a 96-well cell culture plate at 5000 cells/well. Individual compounds of various concentrations were added, mixed uniformly, and incubated (5% CO2) at 37° C. for 72 hours. Then the cell viability was determined by the MTT method.\nb) Determine the inhibitory effects of TTD in combination with Ada A on the human solid tumor cells. The pretreatment of the cells was the same as in a). The control group was not treated with the compound while administered. The two single-drug groups were added with respective active component to the concentration under which the IC50 of two compounds in a) achieve. As to the combination group, two compounds were added together into the same group of wells, with the fmal concentration being the concentration to which the IC50 of the single drugs correspond. After 72 hours of incubation, the MTT method was used for the determination of cell viability. The cell viability of the control group was set to 100% in this experiment, and the TTD, Ada A single drug and combined effects on cell viability (%) were calculated."}, "[7]": {"system": "Becap-37 (human breast cancer cell)", "assay": "MTT cell viability, human solid tumor cells", "conditions": "72 h, MTT", "experimental": "as §5\nas §4, with “human solid tumor” for “above”, “concentration” for “concentrations”, “IC50” for “IC50 values”, “the” for “the two”"}, "[8]": {"system": "CNE (nasopharyngeal carcinoma cell)", "assay": "MTT cell viability, human solid tumor cells", "conditions": "CNE, 72 h, MTT", "experimental": "as §5\nas §4, with “human solid tumor” for “above”, “concentration” for “concentrations”, “IC50” for “IC50 values”, “the” for “the two”"}, "[9]": {"system": "Hela (human cervical cancer cell)", "assay": "MTT cell viability, human solid tumor cells", "conditions": "Hela, 72 h, MTT", "experimental": "as §5\nas §4, with “human solid tumor” for “above”, “concentration” for “concentrations”, “IC50” for “IC50 values”, “the” for “the two”"}, "[10]": {"system": "Hep G2 (human hepatoma carcinoma cell)", "assay": "MTT cell viability, human solid tumor cells", "conditions": "72 h, MTT", "experimental": "as §5\nas §4, with “human solid tumor” for “above”, “concentration” for “concentrations”, “IC50” for “IC50 values”, “the” for “the two”"}, "[11]": {"system": "Hep2 (laryngeal carcinoma)", "assay": "MTT cell viability, human solid tumor cells", "conditions": "72 h, MTT", "experimental": "as §5\nas §4, with “human solid tumor” for “above”, “concentration” for “concentrations”, “IC50” for “IC50 values”, “the” for “the two”"}, "[12]": {"system": "Huh7 (human liver cancer cell)", "assay": "MTT cell viability, human solid tumor cells", "conditions": "72 h, MTT", "experimental": "as §5\nas §4, with “human solid tumor” for “above”, “concentration” for “concentrations”, “IC50” for “IC50 values”, “the” for “the two”"}, "[13]": {"system": "MGC-803 (human gastric cancer cell)", "assay": "MTT cell viability, human solid tumor cells", "conditions": "72 h, MTT", "experimental": "as §5\nas §4, with “human solid tumor” for “above”, “concentration” for “concentrations”, “IC50” for “IC50 values”, “the” for “the two”"}, "[14]": {"system": "PC-3 (prostate cancer)", "assay": "MTT cell viability, human solid tumor cells", "conditions": "72 h, MTT", "experimental": "as §5\nas §4, with “human solid tumor” for “above”, “concentration” for “concentrations”, “IC50” for “IC50 values”, “the” for “the two”"}, "[15]": {"system": "Panc-1 (pancreatic cancer)", "assay": "MTT cell viability, human solid tumor cells", "conditions": "72 h, MTT", "experimental": "as §5\nas §4, with “human solid tumor” for “above”, “concentration” for “concentrations”, “IC50” for “IC50 values”, “the” for “the two”"}, "[16]": {"system": "RKO (human colon adenocarcinoma cell)", "assay": "MTT cell viability, human solid tumor cells", "conditions": "RKO, 72 h, MTT", "experimental": "as §5\nas §4, with “human solid tumor” for “above”, “concentration” for “concentrations”, “IC50” for “IC50 values”, “the” for “the two”"}, "[17]": {"system": "SPC-A-1 (human lung adenocarcinoma cell)", "assay": "MTT cell viability, human solid tumor cells", "conditions": "72 h, MTT", "experimental": "as §5\nas §4, with “human solid tumor” for “above”, “concentration” for “concentrations”, “IC50” for “IC50 values”, “the” for “the two”"}, "[18]": {"system": "U87-MG (malignant glioma cell)", "assay": "MTT cell viability, human solid tumor cells", "conditions": "U-87 MG, U87-MG, 72 h, MTT", "experimental": "as §5\nas §4, with “human solid tumor” for “above”, “concentration” for “concentrations”, “IC50” for “IC50 values”, “the” for “the two”"}, "[19]": {"conditions": "single compound, read-out: concentration (IC50 value of 72 hours)"}},
  "data": [
    {"smiles": "COc1ccc2cc1Oc1ccc(cc1)C[C@H]1c3cc(c(OC)cc3CCN1C)Oc1c(OC)c(OC)cc3c1[C@H](C2)N(C)CC3", "note": "[TTD, tetrandrine]", "values": [
      {"measurement": "viability at 1.69 µg/mL", "setting": "[1]; TTD 1.69 μg/mL, control = 100%, read-out: CV (cell viability)", "value": 52.3, "unit": "%"},
      {"measurement": "IC50", "setting": "[1]; [19]", "value": 1.69, "unit": "µg/mL"},
      {"measurement": "viability at 0.6 µg/mL", "setting": "[2]; TTD 0.6 μg/mL, control = 100%, read-out: CV (cell viability)", "value": 48, "unit": "%"},
      {"measurement": "IC50", "setting": "[2]; [19]", "value": 0.6, "unit": "µg/mL"},
      {"measurement": "viability at 2 µg/mL", "setting": "[3]; kasumi-1, TTD 2 μg/mL, control = 100%, read-out: CV (cell viability)", "value": 51.7, "unit": "%"},
      {"measurement": "IC50", "setting": "[3]; kasumi-1, single compound, read-out: concentration (IC50 value of 72 hours)", "value": 2, "unit": "µg/mL"},
      {"measurement": "IC50", "setting": "[4]", "value": 0.3, "unit": "µg/mL"},
      {"measurement": "viability at 1 µg/mL", "setting": "[5]; TTD 1 μg/mL, control = 100%, read-out: CV (cell viability)", "value": 46.9, "unit": "%"},
      {"measurement": "IC50", "setting": "[5]; [19]", "value": 1, "unit": "µg/mL"},
      {"measurement": "viability at 3.59 µg/mL", "setting": "[6]; CaEs17, 72 h, read-out: CV (cell viability)", "value": 47.1, "unit": "%"},
      {"measurement": "IC50", "setting": "[6]; CaEs17, CaES-17, single compound, 72 h, MTT, read-out: concentration (IC50 value of 72 hours)", "value": 3.59, "unit": "µg/mL"},
      {"measurement": "viability at 3 µg/mL", "setting": "[7]; Becap-37, TTD 3 μg/mL, control = 100%, read-out: CV (cell viability)", "value": 56.1, "unit": "%"},
      {"measurement": "IC50", "setting": "[7]; Becap-37, single compound, read-out: concentration (IC50 value of 72 hours)", "value": 3, "unit": "µg/mL"},
      {"measurement": "viability at 3 µg/mL", "setting": "[8]; TTD 3 μg/mL, control = 100%, read-out: CV (cell viability)", "value": 51.9, "unit": "%"},
      {"measurement": "IC50", "setting": "[8]; [19]", "value": 3, "unit": "µg/mL"},
      {"measurement": "viability at 1.25 µg/mL", "setting": "[9]; TTD 1.25 μg/mL, control = 100%, read-out: CV (cell viability)", "value": 47, "unit": "%"},
      {"measurement": "IC50", "setting": "[9]; [19]", "value": 1.25, "unit": "µg/mL"},
      {"measurement": "viability at 1.5 µg/mL", "setting": "[10]; HepG2, Hep G2, TTD 1.5 μg/mL, control = 100%, read-out: CV (cell viability)", "value": 52.5, "unit": "%"},
      {"measurement": "IC50", "setting": "[10]; HepG2, Hep G2, single compound, read-out: concentration (IC50 value of 72 hours)", "value": 1.5, "unit": "µg/mL"},
      {"measurement": "viability at 2.59 µg/mL", "setting": "[11]; HEp-2, Hep2, TTD 2.59 μg/mL, control = 100%, read-out: CV (cell viability)", "value": 43.8, "unit": "%"},
      {"measurement": "IC50", "setting": "[11]; HEp-2, Hep2, single compound, read-out: concentration (IC50 value of 72 hours)", "value": 2.59, "unit": "µg/mL"},
      {"measurement": "viability at 3 µg/mL", "setting": "[12]; Huh-7, Huh7, TTD 3 μg/mL, control = 100%, read-out: CV (cell viability)", "value": 54, "unit": "%"},
      {"measurement": "IC50", "setting": "[12]; Huh-7, Huh7, single compound, read-out: concentration (IC50 value of 72 hours)", "value": 3, "unit": "µg/mL"},
      {"measurement": "viability at 3 µg/mL", "setting": "[13]; MGC-803, TTD 3 μg/mL, control = 100%, read-out: CV (cell viability)", "value": 50.9, "unit": "%"},
      {"measurement": "IC50", "setting": "[13]; MGC-803, single compound, read-out: concentration (IC50 value of 72 hours)", "value": 3, "unit": "µg/mL"},
      {"measurement": "viability at 4.5 µg/mL", "setting": "[14]; PC-3, TTD 4.5 μg/mL, control = 100%, read-out: CV (cell viability)", "value": 47, "unit": "%"},
      {"measurement": "IC50", "setting": "[14]; PC-3, single compound, read-out: concentration (IC50 value of 72 hours)", "value": 4.5, "unit": "µg/mL"},
      {"measurement": "viability at 4.67 µg/mL", "setting": "[15]; Panc-1, TTD 4.67 μg/mL, control = 100%, read-out: CV (cell viability)", "value": 52.3, "unit": "%"},
      {"measurement": "IC50", "setting": "[15]; Panc-1, single compound, read-out: concentration (IC50 value of 72 hours)", "value": 4.67, "unit": "µg/mL"},
      {"measurement": "viability at 1.5 µg/mL", "setting": "[16]; TTD 1.5 μg/mL, control = 100%, read-out: CV (cell viability)", "value": 45.3, "unit": "%"},
      {"measurement": "IC50", "setting": "[16]; [19]", "value": 1.5, "unit": "µg/mL"},
      {"measurement": "viability at 3.5 µg/mL", "setting": "[17]; SPCA1, SPC-A-1, TTD 3.5 μg/mL, control = 100%, read-out: CV (cell viability)", "value": 52.5, "unit": "%"},
      {"measurement": "IC50", "setting": "[17]; SPCA1, SPC-A-1, single compound, read-out: concentration (IC50 value of 72 hours)", "value": 3.5, "unit": "µg/mL"},
      {"measurement": "viability at 2.37 µg/mL", "setting": "[18]; TTD 2.37 μg/mL, control = 100%, read-out: CV (cell viability)", "value": 47.7, "unit": "%"},
      {"measurement": "IC50", "setting": "[18]; [19]", "value": 2.37, "unit": "µg/mL"}
    ]}
  ]
}
